Results taken from US20060134126A1, “Peptide constructs for treating disease” (priority 2002, published 2006).
Ends that are not written are not given here.

Assays:
[1] = tested on: P. yoelii (non lethal strain 17XNL) sporozoites; test: Comparison of lots and forms of derG in malaria system (Table 9); format: in vivo; details: A/J mice, 5 μg two times, TiterMax
Method: Four (4) groups of 10 mice (4-to 6-wk-old female A/J) were subcutaneously two times at 3-week intervals with 5 μg of the derG peptide, emulsified in TiterMax™ at 1:1 ratio as previously described. Two other groups of mice treated with TiterMax™ alone and untreated mice served as controls. Fourteen days after the second treatment mice were intravenously challenged with 100 P. yoelii (non lethal strain 17XNL ) sporozoites. Parasitemia was determined by microscopic examination of 200 oil-immersion fields of Geimsa stained-thin blood smears obtained from the mice at 5, 7, and 14 days post challenge.
In particular, the derG(19) peptide contains an additional glycine amino acid inserted between the A 140 and V 142 residues. The rationale for the insertion was that these two residues are involved in the CD4 interaction as disclosed in Konig et al. “MHC class II interaction with CD4 medicated by a region analogous to the MHC class I binding site for CD8”, Nature 1992; 356:796-798.

[2] = tested on: plasmodium yoelii sporozoites; test: Protection from sporozoite challenge, TCBL derG in inbred mice (Tables 5, 6); format: in vivo
Description: (§1) Next using another antigen with B and T cell activity two inbred strains of mice, (A/J and Balb/c) were immunized twice at three week intervals with the L.E.A.P.S.™ constructs (J-GF/SF or der-SF/GF) or with the subunits (SF/GF, J and derG) used to make heteroconjugated peptides, and were challenged with 100 Plasmodium yoelii sporozoites 2 weeks after the second immunization and protection efficacy evaluated as before. Four days before challenge, serum was collected from individual animals, pooled and analyzed immediately for antibody to SF/GF peptide sera collected from immunized and protected mice 15 days post challenge were pooled and used for IFN-γ determination by ELISA procedures.
Another experiment similar to the first except only a single strain of mice (A/J) was used with decreasing doses of the derG in order to evaluate potency as shown in Table 6.

[3] = tested on: SF/GF peptide; test: Serum antibody ELISA to SF/GF peptide; format: in vivo, mouse
Description: as §1

[4] = tested on: IFN-γ; test: Serum IFN-γ by ELISA; format: in vivo, mouse; details: A/J mice, sera pooled 15 days post challenge
Description: as §1

[5] = tested on: B16 melanoma; test: Allogeneic murine B16 melanoma protection model; format: in vivo, mouse; details: for Protection: in combination with allogeneic cells
Method: In particular, C57/b16 (H2^b) mice are vaccinated with the allogeneic melanoma K1735 (H2^k) at least twice on weekly intervals and then challenged with syngeneic B16 (H2^b) tumors. […] This is clear evidence of cross-priming and the existence of shared antigens.
Peptide constructs were prepared using as T cell binding ligand, either derG (SEQ ID NO. 7), Peptide G (SEQ ID NO. 5). The peptides are synthesized using the FMOC procedure and a double coupling protocol for the first 8 residues. Usually the peptide is prepared with the carboxyl terminus as an amide form. All of the peptides are purified using prepatative HPLC, and analyzed by an analytical HPLC, amino acid analysis and mass spectrophotometer. The peptides are greater than 95%, usually greater than 98%, pure by HPLC criteria. The dry peptides are stored in vials with desiccant at −8° C. • 1) Eight groups of seven mice were injected with 200 μl of the vaccine as shown in FIG. 1. • 2) This was repeated after 7 days. • 3) A further 7 days later, mice were challenged with 200 μl saline containing 5×10^4 live B16 on the contralateral side to vaccination. • 4) Mice were sacrificed when tumor size exceeded 15 mm in either axis.
In order more precisely model the use of clinical allogeneic vaccines, a frozen vaccine was used in the mouse model wherein K-1735 cells were thawed just prior to use. Efficacy in the protection model ranged from 40-10%. Additionally, the antigen TRP2 (a.a. 180-188), found in B16 melanoma, was engineered into L.E.A.P.S.™ constructs and was tested in various permutations in the allogeneic murine melanoma model. Optimization may be necessary.

[6] = tested on: plasmodium yoelii sporozoites; test: Protection from sporozoite challenge in different mouse strains (Table 7); format: in vivo; details: 25 μg, 2 times at 3 week intervals, TiterMax
Method: Since derG alone was able to protect A/J mice against Plasmodium yoelii sporozoites challenge, in the absence of malaria antigen, a similar experiment was conducted to evaluate the protective efficacy of derG in three other mouse strains: BALB/c (H2d), C3H/HeJ (H2K) and hybrid CAF1 (A/J×BALB/c).
Groups of 10 mice were pre-treated 2 times at 3 week intervals with 25 μg of derG in TiterMax™ adjuvant and challenged with 100 Plasmodium yoelii sporozoites. Protective efficacy was evaluated as described above.

[7] = tested on: HSV-1; test: Scarification-zosteriform spread model of HSV infection; format: in vivo; details: A/J mice
Method: Groups of 4-to 6-wk old female A/J mice were subcutaneously inoculated once with 25 μg of the derG peptide emulsified in ISA51 adjuvant at a 1:1 ratio before challenge unless otherwise specified. Untreated mice and mice treated with adjuvant served as additional controls. The mice were challenged as specified in methods well known to those of ordinary skill in the art and as exemplified by Goel et al. (“The Ability of an HSV Strain to Initiate Zosteriform Spread Correlates with its Neuroinvasive Disease Potential”, Arch Virol 147:763-773 (2002)) and Goel et al., (“A Modification Of The Epidermal Scarification Model Of Herpes Simplex Virus Infection To Achieve A Reproducible And Uniform Progression Of Disease”, J Virol Meth 106;153-8 (2002)).
In particular, hair is removed by shaving and then Nair® is applied. Twenty-fours later the depilated back of a mouse is scratched or abraded to expose the susceptible epidermal layer and virus rubbed in. To provide more detail, 10 μl of a virus suspension containing 6×10^4 plaque forming-units was pipetted onto a 0.5 cm square of skin on mouse dorsal surface, which was previously abraded using sand paper glued on a pencil eraser. In untreated animals, the primary lesion developed at the inoculation site within 3 days and spread to the associated root, followed by anterograde transport and formation of secondary lesions at sites along the dermatome of the nerves within 5 days. In severe cases, animals died within 8 days post viral challenge. Disease progression and survival were monitored for at least 10 days. […] The progression and the severity of the lesions was scored from 0 to 7 (death). This model allows for discrimination of the disease progression (local site, neuronal spread, extent of lesion at the dermatome, death) at which the immune system blocks viral progression. In some experiments modifications in the timing, route of administration and mouse strain were evaluated for efficacy of CEL-1000.

[8] = tested on: plasmodium yoelii sporozoites; test: Malaria protection assay, G/W peptides (Table 4); format: in vivo; details: Experiment 2, outbred CD-1 mice; 25 μg twice; 200 sporozoites
Method: In particular, mice were immunized twice at three week intervals with 25 μg of the subunits (W or G) used to make the L.E.A.P.S.™ construct (GW), and were challenged with 200 plasmodium yoelii sporozoites 2 weeks after the second immunization. Protective efficacy was evaluated by thin blood smears every other day starting 4 days after the challenge. Mice were considered protected if no blood stage parasites were detectable by 14 days after challenge.

[9] = Balb/c mice, dose 25 μg, Table 5
[10] = A/J mice, dose 5 μg, serum pool 4 days before challenge
[11] = A/J mice, dose 25 μg, serum pool 4 days before challenge
[12] = A/J mice, dose 1.25 μg, Table 6

Substance	Protection (%) ([2]; A/J mice, dose 5 μg, Table 5)	Protection Protected/Tested ([2]; A/J mice, dose 5 μg, Table 5)	Protection (%) ([2]; A/J mice, dose 5 μg, Table 6)	Protection Protected/Tested ([2]; A/J mice, dose 5 μg, Table 6)	Protection (%) ([2]; A/J mice, dose 25 μg, Table 5)	Protection Protected/Tested ([2]; A/J mice, dose 25 μg, Table 5)	Protection (%) [2, 9]	Protection Protected/Tested [2, 9]	Antibody ELISA A490* [3, 10]	Antibody ELISA A490* [3, 11]	Antibody ELISA A490* ([3]; Balb/c mice, dose 25 μg)	IFN-γ serum ([4]; dose 5 μg)	IFN-γ serum ([4]; dose 25 μg)	Protection (%) ([2]; A/J mice, dose 10 μg, Table 6)	Protection Protected/Tested ([2]; A/J mice, dose 10 μg, Table 6)	other results
DGQEEKAGGVVSTGLIGGGamide (DGQEEKAGGVVSTGLIGGG-NH2) [derG(19), derG with an additional glycine inserted between the A 140 and V 142 residues]																% Protected ([1]; Lot 1): 40%; Protected/Total ([1]; Lot 1): 4/10; % Protected ([1]; Lot 2): 30%; Protected/Total ([1]; Lot 2): 3/10; % Protected ([1]; Lot 3): 50%; Protected/Total ([1]; Lot 3): 5/10
DGQEEKAGVVSTGLIGGGSFPMNEESPLGFSPEEMEAVASKFR [derG-GF/SF]	(80%)	8/10	(10%)	1/10	(100%)	10/10	(0%)	0/10	1,933	10,694	17,019	7,000 pg/mL	6,000 pg/mL			
DGQEEKAGVVSTGLIGGGamide (DGQEEKAGVVSTGLIGGG-NH2) [derG, modified fragment from MHC II β-chain (a.a.135-149)]	(100%)	10/10	(100%)	10/10	(100%)	10/10	(0%)	0/10	2	2	4	40,000 pg/mL	18,000 pg/mL			Protection ([5]; first value named of two experiments): 30%; Protection ([5]; second value named of two experiments): 40%; Protection (%) [2, 12]: (60%); Protection Protected/Tested [2, 12]: 6/10; Protection (%) ([2]; A/J mice, dose 2.5 μg, Table 6): (80%); Protection Protected/Tested ([2]; A/J mice, dose 2.5 μg, Table 6): 9/10; Protection ([6]; A/J mice): 80; Protection ([6]; BALB/c mice): 0; Protection ([6]; C3H mice): 40; Protection ([6]; CAF1 hybrid mice): 40; protection from lethal HSV-1 challenge [7]: protects; Protection ([7]; intramuscularly 2 weeks prior to challenge, without adjuvant, in aqueous solution): 100%; onset of symptoms, morbidity and mortality ([7]; single dose of 25 μg, timing of administration): delay in onset of symptoms; % Protected ([1]; form 18): 90%; Protected/Total ([1]; form 18): 9/10
DLLKNGERIEKVEGGG SFPMNEESPLGFSPEEMEAVASKFR [J-GF/SF]	(10%)	1/10			(100%)	10/10	(0%)	0/10	1,103	6,121	11,454	0 pg/mL	4,000 pg/mL	(56%)	5/9	
DLLKNGERIEKVEGGG [J, short fragment from β2-microglobulin (a.a. 38-50)]	(10%)	1/10			(10%)	1/10	(0%)	0/10	1	2	2			(10%)	1/10	
NGQEEKAGVVSTGLIGGGamide (NGQEEKAGVVSTGLIGGG-NH2) [G + TM]																activity compared with derG ([5]; differences from derG): much less active; # Protected/# tested [8]: 6/16; % protection [8]: 38%
SFPMNEESPLGFSPEEMEAVASKFR [GF/SF]	(30%)	3/10	(10%)	1/10	(100%)	10/10			8,443	19,970		10,000 pg/mL	12,500 pg/mL	(50%)	5/10	
